Reference: US20260347348A1, “JAK1/JAK2/TYK2 Inhibitors For Topical Treatment of Dermatological Diseases” (Hangzhou Highlightll Pharmaceutical Co., Ltd, priority 2022, published 2026)

Tests used:
TYK2 = TYK2 (Homo sapiens, UniProt P29597); test: TYK2 biochemical test (33P-ATP filter binding kinase assay); conditions: room temperature, 2 hours
Experimental: (§1) The tests were conducted by Reaction Biology Corp, Malvern, PA (Anastassiadis et al. Nat Biotechnol. 2011; 29(11):1039-45). The step is briefly described as follows.
(§2) Basic reaction buffer: 20 mM Hepes (pH 7.5), 10 mM MgCl2, 1 mM EGTA, 0.02% Brij35, 0.02 mg/ml BSA, 0.1 mM Na3VO4, 2 mM DTT and 1% DMSO. The required cofactor was added to each kinase reaction respectively.
(§3) • 1. Preparing the designated substrate in the newly prepared basic reaction buffer; • 2. Transferring the required cofactor to the above matrix solution; • 3. Transferring the designated kinase to the substrate solution and mixing well slightly; • 4. Transferring a compound of formulae I-III in DMSO to the kinase reaction mixture with Acoustic technique (Echo550; nanoliter range), culturing for 20 minutes at room temperature; • 5. Introducing ^33P-ATP (specific activity: 10 μCi/μl) to the reaction mixture to trigger a reaction; • 6. Culturing at room temperature and conducting a kinase reaction for 2 hours; • 7. Plotting the reaction on P81 ion exchange paper; • 8. Testing the kinase activity with a filter binding assay.

JAK1 [1] = target: T1, JAK1 (Homo sapiens, UniProt P23458); test: JAK1 biochemical test (33P-ATP filter binding kinase assay); conditions: room temperature, 2 hours
Experimental: as §1, §2, §3

TYK2/JAK1/JAK2 = TYK2/JAK1/JAK2 biochemical tests, comparative summary; conditions: for fold less potent TYK2/JAK1/JAK2 inhibitor compared to analogs of Formula II (example 4) and Formula III (example 18): compared with examples 4 and 18; for fold less potent than its 2-((pyrazol-4-yl)amino) analog (example 18): compared with example 18
Experimental: as §1, §2, §3

JAK2 = JAK2 (Homo sapiens, UniProt O60674); test: JAK2 biochemical test (33P-ATP filter binding kinase assay); conditions: room temperature, 2 hours
Experimental: as §1, §2, §3

[2] = approved oral agents; topical formulation of ruxolitinib; cited from earlier work
JAK1 [3] = target: T1, JAK1; test: JAK1 cellular ELISA assay using PBMC cells (IL-6 stimulated STAT3 phosphorylation); type: cell-based; conditions: IL-6 100 ng/ml, 25 min
Experimental: Purpose: test cellular JAK1 activity using the IL-6 stimulated STAT3 phosphorylation assay in PBMC cells.
• 1. Plate PBMC cells to 96-well plate at density of ~300,000 cell/well; • 2. Add different concentrations of test article to wells, maintain in incubator at 37° C. and 5% CO2 for 1 hour; • 3. Add IL-6 (final concentration: 100 ng/ml) to stimulate for 25 min in the above incubator; • 4. After stimulation, transfer the suspension to 1.5 mL tube, centrifuge at 200 g for 5 min, collect cells, add 100 μL 1× lysate, lyse on ice for 1 hour; • 5. Centrifuge at 4° C. and 12000 rpm for 10 min, take the supernatant and analyze according to instructions of the ELISA kit.

JAK2, sequence (O60674 whole entry): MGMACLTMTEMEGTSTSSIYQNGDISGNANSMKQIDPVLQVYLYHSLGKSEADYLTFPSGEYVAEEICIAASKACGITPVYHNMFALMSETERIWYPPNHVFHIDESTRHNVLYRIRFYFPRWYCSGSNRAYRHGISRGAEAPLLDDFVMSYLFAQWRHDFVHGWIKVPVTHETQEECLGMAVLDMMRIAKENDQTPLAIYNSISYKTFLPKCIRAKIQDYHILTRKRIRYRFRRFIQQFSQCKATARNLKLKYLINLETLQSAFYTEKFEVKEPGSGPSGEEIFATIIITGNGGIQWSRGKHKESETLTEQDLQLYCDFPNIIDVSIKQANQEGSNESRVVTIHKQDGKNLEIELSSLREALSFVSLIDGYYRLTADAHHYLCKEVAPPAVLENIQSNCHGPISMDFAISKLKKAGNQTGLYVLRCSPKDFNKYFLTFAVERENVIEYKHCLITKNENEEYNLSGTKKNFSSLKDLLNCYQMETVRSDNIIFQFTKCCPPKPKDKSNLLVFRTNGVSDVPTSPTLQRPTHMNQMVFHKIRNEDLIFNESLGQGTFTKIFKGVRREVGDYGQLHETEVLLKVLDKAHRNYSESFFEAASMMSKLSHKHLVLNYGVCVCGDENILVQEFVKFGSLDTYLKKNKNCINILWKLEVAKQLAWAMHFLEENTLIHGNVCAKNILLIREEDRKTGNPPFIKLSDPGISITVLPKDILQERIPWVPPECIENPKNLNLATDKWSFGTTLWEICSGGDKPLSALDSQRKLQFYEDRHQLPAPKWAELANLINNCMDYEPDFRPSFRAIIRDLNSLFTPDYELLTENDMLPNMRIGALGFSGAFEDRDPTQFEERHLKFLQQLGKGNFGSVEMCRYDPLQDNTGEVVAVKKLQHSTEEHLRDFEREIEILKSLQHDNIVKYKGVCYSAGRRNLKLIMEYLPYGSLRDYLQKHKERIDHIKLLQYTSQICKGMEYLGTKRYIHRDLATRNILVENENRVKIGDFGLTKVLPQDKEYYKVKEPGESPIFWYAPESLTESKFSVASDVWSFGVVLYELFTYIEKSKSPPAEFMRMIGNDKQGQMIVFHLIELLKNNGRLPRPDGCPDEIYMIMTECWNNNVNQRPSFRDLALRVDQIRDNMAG
T1 sequence (P23458 whole entry): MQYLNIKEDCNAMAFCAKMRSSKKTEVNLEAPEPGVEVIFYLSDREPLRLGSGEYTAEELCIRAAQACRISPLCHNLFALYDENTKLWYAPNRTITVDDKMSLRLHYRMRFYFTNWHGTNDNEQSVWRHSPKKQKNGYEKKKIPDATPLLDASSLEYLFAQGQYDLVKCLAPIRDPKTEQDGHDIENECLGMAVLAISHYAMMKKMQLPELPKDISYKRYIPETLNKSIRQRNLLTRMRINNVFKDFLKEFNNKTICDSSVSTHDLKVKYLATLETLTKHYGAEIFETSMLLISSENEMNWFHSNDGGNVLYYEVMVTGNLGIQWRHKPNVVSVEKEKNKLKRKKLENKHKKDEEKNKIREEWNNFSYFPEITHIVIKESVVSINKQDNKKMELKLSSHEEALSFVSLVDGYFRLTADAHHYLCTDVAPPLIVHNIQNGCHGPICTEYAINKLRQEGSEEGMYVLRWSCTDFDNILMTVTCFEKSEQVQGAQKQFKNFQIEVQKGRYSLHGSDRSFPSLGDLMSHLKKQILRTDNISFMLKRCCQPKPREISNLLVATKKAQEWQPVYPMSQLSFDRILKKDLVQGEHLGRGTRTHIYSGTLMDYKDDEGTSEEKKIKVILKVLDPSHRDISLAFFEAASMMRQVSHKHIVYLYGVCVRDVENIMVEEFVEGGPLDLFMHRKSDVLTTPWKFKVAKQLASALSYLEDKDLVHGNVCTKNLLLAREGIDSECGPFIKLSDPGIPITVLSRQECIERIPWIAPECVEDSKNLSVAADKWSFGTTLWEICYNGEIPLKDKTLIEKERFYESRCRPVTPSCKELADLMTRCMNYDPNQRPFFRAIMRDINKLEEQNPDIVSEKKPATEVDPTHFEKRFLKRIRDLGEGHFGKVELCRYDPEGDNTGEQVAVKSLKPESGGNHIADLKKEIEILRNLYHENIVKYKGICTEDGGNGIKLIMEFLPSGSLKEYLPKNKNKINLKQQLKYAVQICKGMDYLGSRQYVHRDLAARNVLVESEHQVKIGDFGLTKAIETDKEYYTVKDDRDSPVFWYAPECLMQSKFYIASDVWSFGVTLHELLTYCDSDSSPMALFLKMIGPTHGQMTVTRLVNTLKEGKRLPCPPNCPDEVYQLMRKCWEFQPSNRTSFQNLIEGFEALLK
TYK2, sequence (P29597 whole entry): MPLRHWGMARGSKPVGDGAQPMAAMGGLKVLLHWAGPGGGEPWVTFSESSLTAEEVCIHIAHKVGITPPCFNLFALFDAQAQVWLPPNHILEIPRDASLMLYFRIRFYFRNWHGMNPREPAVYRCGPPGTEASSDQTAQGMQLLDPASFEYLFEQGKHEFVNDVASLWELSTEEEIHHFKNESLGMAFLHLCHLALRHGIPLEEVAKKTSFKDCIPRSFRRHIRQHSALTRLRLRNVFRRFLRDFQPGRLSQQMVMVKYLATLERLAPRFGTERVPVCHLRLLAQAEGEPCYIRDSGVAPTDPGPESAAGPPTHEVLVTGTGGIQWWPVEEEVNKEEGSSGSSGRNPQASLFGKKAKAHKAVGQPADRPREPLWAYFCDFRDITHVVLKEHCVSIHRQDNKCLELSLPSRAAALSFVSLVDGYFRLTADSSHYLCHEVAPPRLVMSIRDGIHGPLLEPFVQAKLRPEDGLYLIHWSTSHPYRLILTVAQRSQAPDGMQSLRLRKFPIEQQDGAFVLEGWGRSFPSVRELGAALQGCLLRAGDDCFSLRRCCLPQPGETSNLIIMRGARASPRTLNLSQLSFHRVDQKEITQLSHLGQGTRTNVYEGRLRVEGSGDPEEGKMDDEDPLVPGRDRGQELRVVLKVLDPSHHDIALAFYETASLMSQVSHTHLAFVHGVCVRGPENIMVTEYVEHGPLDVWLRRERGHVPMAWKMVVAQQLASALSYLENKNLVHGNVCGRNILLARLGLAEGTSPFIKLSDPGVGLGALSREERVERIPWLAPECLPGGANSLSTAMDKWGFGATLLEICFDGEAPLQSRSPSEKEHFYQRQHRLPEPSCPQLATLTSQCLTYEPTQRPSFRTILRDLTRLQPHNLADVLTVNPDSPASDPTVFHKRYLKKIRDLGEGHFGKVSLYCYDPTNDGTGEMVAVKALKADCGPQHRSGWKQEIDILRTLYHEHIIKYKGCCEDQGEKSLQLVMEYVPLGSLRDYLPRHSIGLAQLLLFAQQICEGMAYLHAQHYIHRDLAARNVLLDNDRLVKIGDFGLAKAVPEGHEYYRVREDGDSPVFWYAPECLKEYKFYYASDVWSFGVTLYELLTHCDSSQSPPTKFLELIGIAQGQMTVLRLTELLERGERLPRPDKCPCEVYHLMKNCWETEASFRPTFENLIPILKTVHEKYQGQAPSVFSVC

SMILES | IC50 (TYK2) [nM] | IC50 (JAK1 [1]) [nM] | IC50 (JAK2) [nM] | IC50 (JAK1 [3]) [nM] | fold less potent TYK2/JAK1/JAK2 inhibitor compared to analogs of Formula II (example 4) and Formula III (example 18) (TYK2/JAK1/JAK2) [×] | TYK2/JAK1/JAK2 inhibition (in words) (TYK2/JAK1/JAK2) | fold less potent than its 2-((pyrazol-4-yl)amino) analog (example 18) (TYK2/JAK1/JAK2) [×] | black box warnings / risks [2]
CCS(=O)(=O)N1CC(CC#N)(n2cc(-c3nc(Nc4ccc5ncn(C)c5c4)ncc3C)cn2)C1 [Compound 26, 2-(1-(ethylsulfonyl)-3-(4-(5-methyl-2-((1-methyl-1H-benzo[d]imidazol-6-yl)amino)pyrimidin-4-yl)-1H-pyrazol-1-yl)azetidin-3-yl)acetonitrile] | – | < 1 | – | – | – | potent TYK2/JAK1/JAK2 inhibitors | – | –
CCS(=O)(=O)N1CC(CC#N)(n2cc(-c3nc(Nc4ccn(C)n4)ncc3C)cn2)C1.Cl [Compound 14, 2-(1-(ethylsulfonyl)-3-(4-(5-methyl-2-((1-methyl-1H-pyrazol-3-yl)amino)pyrimidin-4-yl)-1H-pyrazol-1-yl)azetidin-3-yl)acetonitrile hydrochloride, reference compound] | > 10 | > 10 | – | – | – | – | > 10 | –
Cc1cnc(Nc2cnoc2)nc1-c1cnn([C@H](CC#N)C2CCCC2)c1 [Compound 5, (R)-3-cyclopentyl-3-(4-(2-(isoxazol-4-ylamino)-5-methylpyrimidin-4-yl)-1H-pyrazol-1-yl) propanenitrile] | < 1 | < 1 | < 1 | – | – | potent TYK2/JAK1/JAK2 inhibitors | – | –
CC[C@@H]1CN(C(=O)NCC(F)(F)F)C[C@@H]1c1cnc2cnc3[nH]ccc3n12 [upadacitinib] | – | – | – | – | – | – | – | black box warnings of risks such as serious infections, non-melanoma skin cancers, thrombosis, and thrombocytopenia
Cc1cnc(Nc2ccc3ncn(C)c3c2)nc1-c1cnn([C@H](CC#N)C2CCCC2)c1 [Compound 23, (R)-3-cyclopentyl-3-(4-(5-methyl-2-((1-methyl-1H-benzo[d]imidazol-6-yl)amino)pyrimidin-4-yl)-1H-pyrazol-1-yl)propanenitrile] | < 1 | < 1 | < 1 | < 500 | – | potent TYK2/JAK1/JAK2 inhibitors | – | –
CCS(=O)(=O)N1CC(CC#N)(n2cc(-c3nc(Nc4cn(C)nn4)ncc3C)cn2)C1 [Compound 19, 2-(1-(ethylsulfonyl)-3-(4-(5-methyl-2-((1-methyl-1H-1,2,3-triazol-4-yl)amino)pyrimidin-4-yl)-1H-pyrazol-1-yl)azetidin-3-yl)acetonitrile, reference compound] | > 10 | > 10 | > 10 | – | – | – | > 10 | –
N#CC[C@H](C1CCCC1)n1cc(-c2nc(Nc3cnn(C4CCOCC4)c3)ncc2Cl)cn1 [Compound 11] | < 1 | – | – | – | – | potent TYK2/JAK1/JAK2 inhibitors | – | –
CCCS(=O)(=O)N[C@H]1C[C@@H](N(C)c2ncnc3[nH]ccc23)C1 [abrocitinib] | – | – | – | – | – | – | – | black box warnings of risks such as serious infections, non-melanoma skin cancers, thrombosis, and thrombocytopenia

Further lines, with some results ahead:

IC50 (TYK2) [nM] | IC50 (JAK1 [1]) [nM] | IC50 (JAK2) [nM] | IC50 (JAK1 [3]) [nM] | SMILES | fold less potent TYK2/JAK1/JAK2 inhibitor compared to analogs of Formula II (example 4) and Formula III (example 18) (TYK2/JAK1/JAK2) [×] | TYK2/JAK1/JAK2 inhibition (in words) (TYK2/JAK1/JAK2) | fold less potent than its 2-((pyrazol-4-yl)amino) analog (example 18) (TYK2/JAK1/JAK2) [×] | black box warnings / risks [2]
> 100 | > 100 | – | – | Cc1cnc(Nc2cnn(C)c2)nc1N(C)[C@H]1CN(C(=O)CC#N)CC[C@H]1C [Compound 22, 3-((3R,4R)-4-methyl-3-(methyl(5-methyl-2-((1-methyl-1H-pyrazol-4-yl)amino)pyrimidin-4-yl)amino)piperidin-1-yl)-3-oxopropanenitrile, reference compound] | > 100 | – | – | –
< 1 | < 1 | < 1 | – | Cc1cnc(Nc2cnn(CC3CCOCC3)c2)nc1-c1cnn([C@H](CC#N)C2CCCC2)c1 [Compound 6, (R)-3-cyclopentyl-3-(4-(5-methyl-2-((1-((tetrahydro-2H-pyran-4-yl)methyl)-1H-pyrazol-4-yl)amino)pyrimidin-4-yl)-1H-pyrazol-1-yl)propanenitrile] | – | potent TYK2/JAK1/JAK2 inhibitors | – | –
< 1 | < 10 | < 1 | – | CCS(=O)(=O)N1CC(CC#N)(n2cc(-c3nc(Nc4cnn(C)c4)ncc3C3CC3)cn2)C1 [Compound 2, 2-(3-(4-(5-cyclopropyl-2-((1-methyl-1H-pyrazol-4-yl)amino)pyrimidin-4-yl)-1H-pyrazol-1-yl)-1-(ethylsulfonyl)azetidin-3-yl) acetonitrile] | – | potent TYK2/JAK1/JAK2 inhibitors | – | –
< 1 | < 1 | < 1 | – | Cc1cnc(Nc2cnn(CC3COC3)c2)nc1-c1cnn([C@H](CC#N)C2CCCC2)c1 [Compound 9, (R)-3-cyclopentyl-3-(4-(5-methyl-2-((1-(oxetan-3-ylmethyl)-1H-pyrazol-4-yl)amino)pyrimidin-4-yl)-1H-pyrazol-1-yl) propanenitrile] | – | potent TYK2/JAK1/JAK2 inhibitors | – | –
> 10 | > 10 | > 10 | – | CCCS(=O)(=O)N[C@H]1C[C@@H](N(C)c2nc(Nc3cnn(C)c3)ncc2C)C1 [Compound 20, N-((1s,3s)-3-(methyl(5-methyl-2-((1-methyl-1H-pyrazol-4-yl)amino)pyrimidin-4-yl)amino)cyclobutyl)propane-1-sulfonamide, reference compound] | > 10 | – | – | –
> 100 | > 100 | > 100 | – | CNS(=O)(=O)C[C@H]1CC[C@H](N(C)c2nc(Nc3cnn(C)c3)ncc2C)CC1 [Compound 21, N-methyl-1-((1r,4r)-4-(methyl(5-methyl-2-((1-methyl-1H-pyrazol-4-yl)amino)pyrimidin-4-yl)amino)cyclohexyl)methanesulfonamide, reference compound] | > 100 | – | – | –
< 1 | < 1 | < 1 | – | Cc1cnc(Nc2cnn(C3CCOCC3)c2)nc1-c1cnn([C@H](CC#N)C2CCCC2)c1 [Compound 7, (R)-3-cyclopentyl-3-(4-(5-methyl-2-((1-(tetrahydro-2H-pyran-4-yl)-1H-pyrazol-4-yl)amino)pyrimidin-4-yl)-1H-pyrazol-1-yl)propanenitrile] | – | potent TYK2/JAK1/JAK2 inhibitors | – | –
< 1 | < 1 | < 1 | – | Cc1cnc(Nc2cnn(C3COC3)c2)nc1-c1cnn([C@H](CC#N)C2CCCC2)c1 [Compound 8, (R)-3-cyclopentyl-3-(4-(5-methyl-2-((1-(oxetan-3-yl)-1H-pyrazol-4-yl)amino)pyrimidin-4-yl)-1H-pyrazol-1-yl) propanenitrile] | – | potent TYK2/JAK1/JAK2 inhibitors | – | –
< 1 | < 1 | < 1 | < 500 | Cc1cnc(Nc2cnn(CCO)c2)nc1-c1cnn([C@H](CC#N)C2CCCC2)c1 [Compound 24, (R)-3-cyclopentyl-3-(4-(2-((1-(2-hydroxyethyl)-1H-pyrazol-4-yl)amino)-5-methylpyrimidin-4-yl)-1H-pyrazol-1-yl)propanenitrile] | – | potent TYK2/JAK1/JAK2 inhibitors | – | –
